Like-named read-outs stand apart in the source and are kept apart here.

A short description of data set [1]: saluretic efficiency test in rats: elimination of water, sodium, chloride and potassium in 6 h urine after oral dosing. The class given is in vivo. The settings on record: rats, oral; for change in vivo at 40 µmol/kg / change in vivo at 80 µmol/kg: Rattus norvegicus. On the procedure:
In order to test the saluretic efficiency of the compounds of the invention rats having a weight of 150 to 200 g were used. The animals were kept without food, but not without drinking water, for 15 hours before the beginning of the test. The test substances were administered to groups of four rats, of substantially equal weight, with a rigid stomach probe in a 1% methyl cellulose slime. The dose required per 100 g animal (unit dosage in μmol/kg body weight) was contained in one ml. Following the administration of the substance the rats were given 5 ml 0.9% sodium chloride solution per 100 g body weight p.o. and placed in a diuresis funnel after manually emptying the bladder. Urine was collected for 6 hours in an airconditioned chamber at 24°±1° C. and a relative air humidity of 50±5%. The diuretic effect of a particular dose was tested on at least two, but more frequently however on four to eight groups of rats. Two sodium chloride controls were also used for each test day.
At the end of the collecting periods the volumes of urine discharged per group were noted and the pH value and also the content of sodium, potassium (flame-photometrically) and chloride (measured argentometrically with the determination of the end point potentiometrically) were determined.
From the analysis results the quantities of Na^+, K^+ and Cl^- eliminated were calculated in […] body weight, and the values thus obtained compared with those of the control animals.
Means values and twice the standard deviation were calculated from the data for the sodium chloride controls, in order to determine the normal range. Then, for the values found with the test substances, the percentage variations from the average in respect of these parameters were calculated and tabulated. In this connection, with the results given in Table 1, the upper limit of the normal range, which is defined as the mean value plus twice the standard deviation, was selected as the reference quantity for the variations. In this way relevant hyper-eliminations could clearly be recognised.
In Table 2, the mean percentage variations in potassium elimination after administration of the compounds in accordance with the invention are compared with the mean value of the potassium elimination in the case of the sodium chloride controls. At the same time the […] ratio is given which provides conclusive evidence of the effective saluretic property. The larger this quotient is, then the more sodium than potassium is eliminated in proportion.

A short description of data set [2]: comparison of toxicity in mice: oral LD50 by the Lichtfiel & Wilcoxon method. The class given is in vivo. The conditions noted are these: mouse, in vivo, observation period 7 days, 95% confidence limit in brackets, read-out: LD50. An excerpt:
In Table 3 the mean lethal doses for mice, administered orally (LD50 determination by the […] & WILCOXON method - J.Pharmacol. Exp. Ther. 96,98 (1949)) are compared.

Where [3] appears, read: 6 h, 40 μmol/kg body wt., relative to mean K+ elimination of the controls, read-out: Mean percentage variation in the elimination of potassium.
Setting [4] is: 6 h, 80 μmol/kg body wt., relative to mean K+ elimination of the controls, read-out: Mean percentage variation in the elimination of potassium.
The mark [5] stands for this setting: 40 μmol/kg body wt., deviation from control mean plus twice the standard deviation, 6 h urine, read-out: Mean percentage variation in the elimination of Chloride.
Where [6] appears, read: 40 μmol/kg body wt., deviation from control mean plus twice the standard deviation, 6 h urine, read-out: Mean percentage variation in the elimination of H2O.
Setting [7] is: 40 μmol/kg body wt., deviation from control mean plus twice the standard deviation, 6 h urine, read-out: Mean percentage variation in the elimination of Sodium.
Where [8] appears, read: 80 μmol/kg body wt., deviation from control mean plus twice the standard deviation, 6 h urine, read-out: Mean percentage variation in the elimination of Chloride.
Where [9] appears, read: 80 μmol/kg body wt., deviation from control mean plus twice the standard deviation, 6 h urine, read-out: Mean percentage variation in the elimination of H2O.
The mark [10] stands for this setting: 80 μmol/kg body wt., deviation from control mean plus twice the standard deviation, 6 h urine, read-out: Mean percentage variation in the elimination of Sodium.

In the case of `COc1cc(C)c(C(O)(c2ccccc2)C(C)N2CCCC2)cc1C(C)(C)C` (centres unmarked) [T 1856, 1-(4'-methoxy-2'-methyl-5'-tert-butylphenyl)-1-phenyl-2-pyrrolidino-propan-1-ol], the change in vivo at 40 µmol/kg worked out at 25.5% in data set [1] (setting [3]), 19.4% in data set [1] (setting [5]), 41% in data set [1] (setting [6]) and 30.6% in data set [1] (setting [7]). The change in vivo at 80 µmol/kg in data set [1] (setting [4]) came to 22.4%; in data set [1] (setting [8]), 32.5%; in data set [1] (setting [9]), 59.7%; in data set [1] (setting [10]) it was 47.6%. Further, the “Quotient Na/K” value in data set [1] (40 μmol/kg body wt.) is reported as 6.18; in data set [1] (80 μmol/kg body wt.), 7.16. In addition, in data set [2], the LD50 (commonly the dose expected to kill half of the subjects tested) was 2200 mg/kg.

As for `COc1c(C)cc(C(O)(c2cc(Cl)cc(C)c2OC)C(C)N(C)C(C)(C)C)cc1C` (centres unmarked) [T 2493, 1-(3'-chloro-6'-methoxy-5'-methylphenyl)-1-(4"-methoxy-3",5"-dimethylphenyl)-2-(N-methyl-tertiary-butylamino)-propan-1-ol], the change in vivo at 40 µmol/kg in data set [1] (setting [3]) was 35.7%; in data set [1] (setting [5]), 41%; in data set [1] (setting [6]) it was 59.2%; in data set [1] (setting [7]), 62.7%. Further, the change in vivo at 80 µmol/kg turned out to be 34.7% in data set [1] (setting [4]), 41.5% in data set [1] (setting [8]), 64.4% in data set [1] (setting [9]) and 76.8% in data set [1] (setting [10]). Also, the figures for the “Quotient Na/K” value in data set [1] (40 μmol/kg body wt.) and in data set [1] (80 μmol/kg body wt.) were 7.74 and 7.88, respectively. Also, in data set [2], the LD50 came to 3610 mg/kg.

`COc1ccc(C(O)(c2cc(C(C)(C)C)cc(C)c2OC)C(C)N2CCCCC2)c(OC)c1` (centres unmarked) [T 2455, 1-(2'-methoxy-3'-methyl-5'-tertiary-butylphenyl)-1-(2",4"-dimethoxyphenyl)-2-piperidino-propan-1-ol]: the change in vivo at 40 µmol/kg came out at 13.3% in data set [1] (setting [3]), 21.4% in data set [1] (setting [5]), 39.8% in data set [1] (setting [6]) and 31.3% in data set [1] (setting [7]). Moreover, the change in vivo at 80 µmol/kg was -23.5% in data set [1] (setting [4]), 34.8% in data set [1] (setting [8]), 62.4% in data set [1] (setting [9]) and 55.8% in data set [1] (setting [10]). Further, the results for the “Quotient Na/K” value in data set [1] (40 μmol/kg body wt.) and in data set [1] (80 μmol/kg body wt.) were 6.88 and 12.93, respectively. In data set [2], the LD50 was 4550 mg/kg.

Turning to `COc1ccc(C)cc1C(O)(c1cc(C(C)C)c(OCc2ccccc2)c(C(C)C)c1)C(C)N1CCCCC1` (centres unmarked) [T 2481, 1-(2'-methoxy-5'-methylphenyl)-1-(4"-benzyloxy-3",5"-diisopropylphenyl)-2-piperidino-propan-1-ol], the change in vivo at 40 µmol/kg in data set [1] (setting [3]) was -4.1%; in data set [1] (setting [5]), -7.5%; in data set [1] (setting [6]), 3%; in data set [1] (setting [7]), -2.4%. The change in vivo at 80 µmol/kg in data set [1] (setting [4]) was 16.3%; in data set [1] (setting [8]) it was 20%; in data set [1] (setting [9]), 34.1%; in data set [1] (setting [10]), 43.8%. For the same compound, the “Quotient Na/K” value in data set [1] (40 μmol/kg body wt.) was determined as 6.04; in data set [1] (80 μmol/kg body wt.) it was 7.34. The LD50 in data set [2] came to 3780 mg/kg.

Turning to `COc1c(C(C)C)cc(Cl)c(C)c1C(O)(c1ccccc1)C(C)N1CCCC1` (centres unmarked) [T 2350, 1-(3'-chloro-6'-methoxy-2'-methyl-5'-isopropylphenyl)-1-phenyl-2-pyrriolidino-propan-1-ol], the change in vivo at 40 µmol/kg was -2% in data set [1] (setting [3]), 2.6% in data set [1] (setting [5]), 24.1% in data set [1] (setting [6]) and 15.5% in data set [1] (setting [7]). Also, the change in vivo at 80 µmol/kg in data set [1] (setting [4]) turned out to be 25.5%; in data set [1] (setting [8]) it was 21.2%; in data set [1] (setting [9]) it was 49.8%; in data set [1] (setting [10]), 40.5%. Further, the figures for the “Quotient Na/K” value in data set [1] (40 μmol/kg body wt.) and in data set [1] (80 μmol/kg body wt.) were 7.00 and 6.65, respectively. In addition, the LD50 in data set [2] was over 4500 mg/kg.

Turning to `CCCC(C)(C)c1cc(C)c(OC)c(C(O)(c2ccccc2)C(C)N2CCCC2)c1` (centres unmarked) [T 2111, 1-(2'-methoxy-3'-methyl-5'-tertiary-hexylphenyl)-1-phenyl-2-pyrrolidino-propan-1-ol], the change in vivo at 40 µmol/kg stood at 19.4% in data set [1] (setting [3]), 9.5% in data set [1] (setting [5]), 36.8% in data set [1] (setting [6]) and 33.5% in data set [1] (setting [7]). For the same compound, the change in vivo at 80 µmol/kg in data set [1] (setting [4]) is -7.1%; in data set [1] (setting [8]), 23.4%; in data set [1] (setting [9]), 33.8%; in data set [1] (setting [10]), 37.1%. Moreover, the “Quotient Na/K” value in data set [1] (40 μmol/kg body wt.) amounted to 6.64; in data set [1] (80 μmol/kg body wt.), 8.77. Further, in data set [2], the LD50 was 4450 mg/kg.

As for `CCOc1c(C(C)C)cc(C(O)(c2ccc(OC)cc2)C(C)N2CCCCC2)cc1C(C)C` (centres unmarked) [T 2310], the change in vivo at 40 µmol/kg in data set [1] (setting [3]) stood at 14.3%; in data set [1] (setting [5]), 8.9%; in data set [1] (setting [6]), 41.3%; in data set [1] (setting [7]) it was 27.3%. Further, the change in vivo at 80 µmol/kg in data set [1] (setting [4]) is -2%; in data set [1] (setting [8]), 36.3%; in data set [1] (setting [9]), 67.9%; in data set [1] (setting [10]), 42.3%. For the same compound, the “Quotient Na/K” value in data set [1] (40 μmol/kg body wt.) is given as 6.62; in data set [1] (80 μmol/kg body wt.) it was 8.64. The LD50 in data set [2] is 520 mg/kg.

In the case of `CCOc1ccc(C(O)(c2cc(C(C)C)c(OC)c(C(C)C)c2)C(C)N2CCCCC2)cc1` (centres unmarked) [T 2258, 1-(4'-methoxy-3',5'-diisopropylphenyl)-1-(4"-ethoxyphenyl)-2-piperidino-propan-1-ol], the change in vivo at 40 µmol/kg was determined as 19.4% in data set [1] (setting [3]), 12.8% in data set [1] (setting [5]), 28.1% in data set [1] (setting [6]) and 22.9% in data set [1] (setting [7]). Besides, the change in vivo at 80 µmol/kg in data set [1] (setting [4]) was 1%; in data set [1] (setting [8]), 17.3%; in data set [1] (setting [9]), 32.3%; in data set [1] (setting [10]), 24.6%. Further, the “Quotient Na/K” value in data set [1] (40 μmol/kg body wt.) came out at 6.11; in data set [1] (80 μmol/kg body wt.), 7.32. Besides, the LD50 in data set [2] was over 4500 mg/kg.

As to `COc1cc(C)c(C(O)(c2ccccc2)C(C)N2CCCCC2)cc1C(C)C` (centres unmarked) [T 1523, 1-(4'-methoxy-2'-methyl-5'-isopropylphenyl)-1-phenyl-2-piperidino-propan-1-ol], the change in vivo at 40 µmol/kg in data set [1] (setting [3]) is 25.5%; in data set [1] (setting [5]), -5.1%; in data set [1] (setting [6]) it was 28.9%; in data set [1] (setting [7]), 13.1%. The change in vivo at 80 µmol/kg in data set [1] (setting [4]) came out at 13.3%; in data set [1] (setting [8]) it was 14.2%; in data set [1] (setting [9]), 39.6%; in data set [1] (setting [10]) it was 28.2%. Further, the “Quotient Na/K” value is reported as 5.35 in data set [1] (40 μmol/kg body wt.) and 6.72 in data set [1] (80 μmol/kg body wt.). The LD50 in data set [2] was over 3200 mg/kg.

For the compound `COc1ccc(C(O)(c2cc(C(C)(C)C)cc(C)c2OC)C(C)N2CCCCC2)cc1OC` (centres unmarked) [T 2464, 1-(2'-methoxy-3'-methyl-5'-tertiary-butylphenyl)-1-(3",4"-dimethoxyphenyl)-2-piperidinopropan-1-ol], the change in vivo at 40 µmol/kg came to 9.2% in data set [1] (setting [3]), 30.4% in data set [1] (setting [5]), 49.8% in data set [1] (setting [6]) and 64.4% in data set [1] (setting [7]). The change in vivo at 80 µmol/kg in data set [1] (setting [4]) is -1%; in data set [1] (setting [8]), 38.3%; in data set [1] (setting [9]), 65.9%; in data set [1] (setting [10]) it was 79%. For the same compound, the “Quotient Na/K” value in data set [1] (40 μmol/kg body wt.) was determined as 8.94; in data set [1] (80 μmol/kg body wt.), 10.74. Further, the LD50 in data set [2] was over 4550 mg/kg.

The values are drawn from US4361573A, “α,α-Diaryl-β-(tert-amino)-propanols and diuretic pharmaceutical compositions containing them” (Temmler AG, priority 1974, dated 1982).
